Laboratory results taken from patent US12583866B2, “Pyrido[2,3-b][1,4]oxazines or tetrahydropyrido[2,3-b][1,4]oxazepines as IAP antagonists” (BEIGENE, LTD., priority 2020, dated 2026).
Counter-ions that a name gives are not always drawn.

Tests used:
[1] = target: T1, recombinant human cIAP1-BIR3 protein (Homo sapiens, UniProt Q13490); test: Recombinant human c-IAP1-BIR3 biochemical assay (HTRF, peptide displacement); settings: 1.2 nM cIAP1-BIR3, 3 nM AbuRPF-K(5-Fam)-NH2 peptide, read-out: Protein binding IC50 (nM) c-IAP1
T1 construct: recombinant human cIAP1-BIR3 protein; purchased Reaction biology APT-11-370
T1 sequence (Q13490 253-363 limits assumed): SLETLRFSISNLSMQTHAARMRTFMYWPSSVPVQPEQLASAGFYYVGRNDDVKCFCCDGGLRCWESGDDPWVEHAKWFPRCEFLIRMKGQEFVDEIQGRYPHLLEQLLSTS
Procedure: I. Recombinant human c-IAP1-BIR3 biochemical assay
(§1) Compounds disclosed herein were tested for blocking of recombinant human cIAP1-BIR3 protein (Cat: APT-11-370, Reaction biology) with its peptide in an assay based on Homogeneous Time Resolved Fluorescence. 1.2 nM recombinant human cIAP1-BIR3 protein was pre-incubated with a serial dilution of compounds disclosed herein (maximum concentration is 10 uM, 4-fold serially diluted, 10 points) at room temperature for 1 hour in an assay buffer containing 20 mM HEPES, pH 7.5, 50 mM NaCl, 0.005% Tween-20, 1 mM DTT. Then 3 nM AbuRPF-K (5-Fam)-NH2 (Cat: 709702, GL Biochem) was added to plate incubated at room temperature for 1 hour. Mab Anti-6His Tb cryptate Gold (Cat: 61HI2TLB, Cisbio Bioassays) was added to plate and further incubated at room temperature for 1 hour. The HTRF signals (ex337 nm, em520 nm/490 nm) were read on BMG PHERAstar FS instrument. The inhibition percentage of cIAP1-BIR3 interaction with its peptide in presence of increasing concentrations of compounds was calculated based on the ratio of fluorescence at 520 nm to that at 490 nm. The IC50 for each compound was derived from fitting the data to the four-parameter logistic equation by Dotmatics and summarized in table 1.

[2] = target: T2, recombinant human cIAP2-BIR3 protein (Homo sapiens, UniProt Q13489); test: Recombinant human c-IAP2-BIR3 biochemical assay (HTRF, peptide displacement); settings: 3.7 nM cIAP2-BIR3, 3.7 nM AbuRPF-K(5-Fam)-NH2 peptide, read-out: Protein binding IC50 (nM) c-IAP2
T2 construct: recombinant human cIAP2-BIR3 protein; purchased Reaction biology APT-11-372
T2 sequence (Q13489 238-349 limits assumed): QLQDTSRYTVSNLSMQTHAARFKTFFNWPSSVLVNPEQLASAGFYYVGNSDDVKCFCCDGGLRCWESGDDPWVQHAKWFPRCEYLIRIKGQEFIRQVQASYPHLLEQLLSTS
Procedure: II. Recombinant Human c-IAP2-BIR3 Biochemical Assay
as §1, with “human cIAP2-BIR3” for “human cIAP1-BIR3”, “(Cat: APT-11-372,” for “(Cat: APT-11-370,”, “Fluorescence. 3.7” for “Fluorescence. 1.2”, “Then 3.7” for “Then 3”, “nM AbuRPF-K(5-Fam)-NH2” for “nM AbuRPF-K (5-Fam)-NH2”, “of cIAP2-BIR3” for “of cIAP1-BIR3”

[3] = target: T3, recombinant human XIAP-BIR3 protein (Homo sapiens, UniProt P98170); test: Recombinant human XIAP-BIR3 biochemical assay (HTRF, peptide displacement); settings: 3.7 nM XIAP-BIR3, 7.6 nM AbuRPF-K(5-Fam)-NH2 peptide, read-out: Protein binding IC50 (nM) XIAP
T3 construct: recombinant human XIAP-BIR3 protein; purchased Reaction biology APT-11-374
T3 sequence (P98170 241-356 limits assumed): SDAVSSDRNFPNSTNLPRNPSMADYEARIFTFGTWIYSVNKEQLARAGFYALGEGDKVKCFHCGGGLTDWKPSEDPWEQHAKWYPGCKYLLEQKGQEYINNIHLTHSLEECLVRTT
Procedure: III. Recombinant Human XIAP-BIR3 Biochemical Assay
as §1, with “human XIAP-BIR3” for “human cIAP1-BIR3”, “(Cat: APT-11-374,” for “(Cat: APT-11-370,”, “Fluorescence. 3.7” for “Fluorescence. 1.2”, “Then 7.6” for “Then 3”, “nM AbuRPF-K(5-Fam)-NH2” for “nM AbuRPF-K (5-Fam)-NH2”, “of XIAP-BIR3” for “of cIAP1-BIR3”

| Structure (SMILES) | IC50 [1] [nM] | IC50 [2] [nM] | IC50 [3] [nM] |
| --- | --- | --- | --- |
| C[C@@H]1CN(CC(=O)N2CCOc3nc(C#N)c(Cc4ccc(F)cc4)cc32)[C@@H](CN2CCOC[C@H]2C)CN1 [Compound 1, 7-(4-fluorobenzyl)-1-(2-((2R,5R)-5-methyl-2-(((R)-3-methylmorpholino)methyl)piperazin-1-yl)acetyl)-2,3-dihydro-1H-pyrido[2,3-b][1,4]oxazine-6-carbonitrile formate] | 0.5 | 0.9 | 26 |
| C[C@@H]1CN(CC(=O)N2CCOc3ncc(Cc4ccc(F)cc4)cc32)[C@@H](CN2CCOC[C@H]2C)CN1 [Compound 2, 1-(7-(4-fluorobenzyl)-2,3-dihydro-1H-pyrido[2,3-b][1,4]oxazin-1-yl)-2-((2R,5R)-5-methyl-2-(((R)-3-methylmorpholino)methyl)piperazin-1-yl)ethan-1-one formate] | 0.9 | 2.5 | 24 |
| C[C@@H]1CN(CC(=O)N2CCOc3nc(C(N)=O)c(Cc4ccc(F)cc4)cc32)[C@@H](CN2CCOC[C@H]2C)CN1 [Compound 3, 7-(4-fluorobenzyl)-1-(2-((2R,5R)-5-methyl-2-(((R)-3-methylmorpholino)methyl)piperazin-1-yl)acetyl)-2,3-dihydro-1H-pyrido[2,3-b][1,4]oxazine-6-carboxamide formate] | 1.5 | 3.2 | 23 |
| C[C@@H]1CN(CC(=O)N2CCOc3nc(Br)c(Cc4ccc(F)cc4)cc32)[C@@H](CN2CCOC[C@H]2C)CN1 [Compound 4, 1-(6-bromo-7-(4-fluorobenzyl)-2,3-dihydro-1H-pyrido[2,3-b][1,4]oxazin-1-yl)-2-((2R,5R)-5-methyl-2-(((R)-3-methylmorpholino)methyl)piperazin-1-yl)ethan-1-one] | 0.5 | 0.92 | 17 |
| Cc1nc2c(cc1Cc1ccc(F)cc1)N(C(=O)CN1C[C@@H](C)NC[C@@H]1CN1CCOC[C@H]1C)CCO2 [Compound 5, 1-(7-(4-fluorobenzyl)-6-methyl-2,3-dihydro-1H-pyrido[2,3-b][1,4]oxazin-1-yl)-2-((2R,5R)-5-methyl-2-(((R)-3-methylmorpholino)methyl)piperazin-1-yl)ethan-1-one] | 0.7 | 1.1 | 18 |
| C[C@@H]1CN(CC(=O)N2CCOc3nc(C4CC4)c(Cc4ccc(F)cc4)cc32)[C@@H](CN2CCOC[C@H]2C)CN1 [Compound 6, 1-(6-cyclopropyl-7-(4-fluorobenzyl)-2,3-dihydro-1H-pyrido[2,3-b][1,4]oxazin-1-yl)-2-((2R,5R)-5-methyl-2-(((R)-3-methylmorpholino)methyl)piperazin-1-yl)ethan-1-one] | 1.1 | 3 | 61 |
| C[C@@H]1CN(CC(=O)N2CCOc3nc(C(F)(F)F)c(Cc4ccc(F)cc4)cc32)[C@@H](CN2CCOC[C@H]2C)CN1 [Compound 7, 1-(7-(4-fluorobenzyl)-6-(trifluoromethyl)-2,3-dihydro-1H-pyrido[2,3-b][1,4]oxazin-1-yl)-2-((2R,5R)-5-methyl-2-(((R)-3-methylmorpholino)methyl)piperazin-1-yl)ethan-1-one] | 1.3 | 6.8 | 99 |
| C[C@@H]1CN(CC(=O)N2CCOc3nc(CO)c(Cc4ccc(F)cc4)cc32)[C@@H](CN2CCOC[C@H]2C)CN1 [Compound 8, 1-(7-(4-fluorobenzyl)-6-(hydroxymethyl)-2,3-dihydro-1H-pyrido[2,3-b][1,4]oxazin-1-yl)-2-((2R,5R)-5-methyl-2-(((R)-3-methylmorpholino)methyl)piperazin-1-yl)ethan-1-one] | 1 | 2.9 | 45 |
| C[C@@H]1CN(CC(=O)N2CCOc3nc(O)c(Cc4ccc(F)cc4)cc32)[C@@H](CN2CCOC[C@H]2C)CN1 [Compound 9, 1-(7-(4-fluorobenzyl)-6-hydroxy-2,3-dihydro-1H-pyrido[2,3-b][1,4]oxazin-1-yl)-2-((2R,5R)-5-methyl-2-(((R)-3-methylmorpholino)methyl)piperazin-1-yl)ethan-1-one] | 0.85 | 1.3 | 10 |
| CC1CN(C(=O)CN2C[C@@H](C)NC[C@@H]2CN2CCOC[C@H]2C)c2cc(Cc3ccc(F)cc3)cnc2O1 (stereo partly drawn) [Compound 10, 1-(7-(4-fluorobenzyl)-3-methyl-2,3-dihydro-1H-pyrido[2,3-b][1,4]oxazin-1-yl)-2-((2R,5R)-5-methyl-2-(((R)-3-methylmorpholino)methyl)piperazin-1-yl)ethan-1-one] | 14 | 52 | 264 |
| CC1CN(C(=O)CN2C[C@@H](C)NC[C@@H]2CN2CCOC[C@H]2C)c2cc(Cc3ccc(F)cc3)c(Br)nc2O1 (stereo partly drawn) [Compound 11, 1-(6-bromo-7-(4-fluorobenzyl)-3-methyl-2,3-dihydro-1H-pyrido[2,3-b][1,4]oxazin-1-yl)-2-((2R,5R)-5-methyl-2-(((R)-3-methylmorpholino)methyl)piperazin-1-yl)ethan-1-one] | 8 | 17 | 220 |
| C[C@@H]1CN(CC(=O)N2CC(C)(C)Oc3nc(Br)c(Cc4ccc(F)cc4)cc32)[C@@H](CN2CCOC[C@H]2C)CN1 [Compound 12, 1-(6-bromo-7-(4-fluorobenzyl)-3,3-dimethyl-2,3-dihydro-1H-pyrido[2,3-b][1,4]oxazin-1-yl)-2-((2R,5R)-5-methyl-2-(((R)-3-methylmorpholino)methyl)piperazin-1-yl)ethan-1-one] | 16 | 44 | 561 |
| C[C@@H]1CN(CC(=O)N2CCOc3ncc(Cc4ccc(F)cc4)cc32)[C@@H](CN2C[C@@H]3C[C@H]2CO3)CN1 [Compound 13, 2-((2R,5R)-2-(((1S,45)-2-oxa-5-azabicyclo[2.2.1]heptan-5-yl)methyl)-5-methylpiperazin-1-yl)-1-(7-(4-fluorobenzyl)-2,3-dihydro-1H-pyrido[2,3-b][1,4]oxazin-1-yl)ethan-1-one] | 1.02 | 1.5 | 24 |
| C[C@@H]1CN(CC(=O)N2CCOc3ncc(Cc4ccc(F)cc4)cc32)[C@@H](CN2C[C@H]3C[C@@H]2CO3)CN1 [Compound 14] | 3.6 | 9.8 | 122 |
| C[C@@H]1CN(CC(=O)N2CCOc3ncc(Cc4ccc(F)cc4)cc32)[C@@H](CN2C(=O)OC[C@H]2C(F)F)CN1 [Compound 15, (S)-4-(difluoromethyl)-3-(((2R,5R)-1-(2-(7-(4-fluorobenzyl)-2,3-dihydro-1H-pyrido[2,3-b][1,4]oxazin-1-yl)-2-oxoethyl)-5-methylpiperazin-2-yl)methyl)oxazolidin-2-one] | 3.4 | 6.9 | 196 |
